Test results published in patent US8895744B2, “Alfa-carboline inhibitors of NPM-ALK, RET, and Bcr-Abl” (Universita' Degli Studi di Milano-Bicocca, priority 2008, dated 2014).

Legend:
[1] = molecular target: T1, Recombinant ALK kinase (Homo sapiens, UniProt Q9UM73); test: ALK kinase inhibitory activity, ELISA-based in vitro kinase assay; type: biochemical; conditions: purified rALK, 0.3 mM ATP, read-out: ALK IC50
T1 construct: made in house; host or cells: Sf9 insect cells (baculovirus)
Procedure, shortened: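 Sf9-expressed, purified recombinant ALK phosphorylated a plate-coated peptide substrate with 0.3 mM ATP, Mn2+/Mg2+, pH 7.5, 15 min at 30° C, after 10 min inhibitor preincubation. Phosphotyrosine was detected by anti-pTyr ELISA (TMB, A450); IC50 in μM is the concentration giving 50% inhibition relative to control.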

[2] = test system: parent untransformed BaF3 cells; test: Tritiated thymidine uptake cell proliferation assay, parental BaF3 (control); type: cell-based; conditions: Mus musculus, 3[H]-thymidine uptake, 72 h, medium with IL-3, read-out: BaF parental IC50
Procedure, shortened: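 Control lines were parental BaF3 in IL-3-supplemented medium and ALK-, Abl- or RET-negative U937, seeded at 10 000 cells/well with serial inhibitor dilutions for 72 h at 37 °C. ³H-thymidine (1 μCi/well) was added for the final 16 h; IC50 (μM) is the concentration halving uptake versus DMSO.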

[3] = molecular target: T2, BaF3 cells transformed with the oncogenic fusion protein NPM/ALK (Homo sapiens, UniProt Q9UM73); test: Tritiated thymidine uptake cell proliferation assay, BaF3 NPM/ALK; type: cell-based; conditions: 3[H]-thymidine uptake, 72 h; read-out: BaF NPM/ALK IC50
T2 construct: fused on or other part: P06748 (Nucleophosmin)
T2 sequence (Q9UM73 whole entry, change not shown, the tested form may be a part): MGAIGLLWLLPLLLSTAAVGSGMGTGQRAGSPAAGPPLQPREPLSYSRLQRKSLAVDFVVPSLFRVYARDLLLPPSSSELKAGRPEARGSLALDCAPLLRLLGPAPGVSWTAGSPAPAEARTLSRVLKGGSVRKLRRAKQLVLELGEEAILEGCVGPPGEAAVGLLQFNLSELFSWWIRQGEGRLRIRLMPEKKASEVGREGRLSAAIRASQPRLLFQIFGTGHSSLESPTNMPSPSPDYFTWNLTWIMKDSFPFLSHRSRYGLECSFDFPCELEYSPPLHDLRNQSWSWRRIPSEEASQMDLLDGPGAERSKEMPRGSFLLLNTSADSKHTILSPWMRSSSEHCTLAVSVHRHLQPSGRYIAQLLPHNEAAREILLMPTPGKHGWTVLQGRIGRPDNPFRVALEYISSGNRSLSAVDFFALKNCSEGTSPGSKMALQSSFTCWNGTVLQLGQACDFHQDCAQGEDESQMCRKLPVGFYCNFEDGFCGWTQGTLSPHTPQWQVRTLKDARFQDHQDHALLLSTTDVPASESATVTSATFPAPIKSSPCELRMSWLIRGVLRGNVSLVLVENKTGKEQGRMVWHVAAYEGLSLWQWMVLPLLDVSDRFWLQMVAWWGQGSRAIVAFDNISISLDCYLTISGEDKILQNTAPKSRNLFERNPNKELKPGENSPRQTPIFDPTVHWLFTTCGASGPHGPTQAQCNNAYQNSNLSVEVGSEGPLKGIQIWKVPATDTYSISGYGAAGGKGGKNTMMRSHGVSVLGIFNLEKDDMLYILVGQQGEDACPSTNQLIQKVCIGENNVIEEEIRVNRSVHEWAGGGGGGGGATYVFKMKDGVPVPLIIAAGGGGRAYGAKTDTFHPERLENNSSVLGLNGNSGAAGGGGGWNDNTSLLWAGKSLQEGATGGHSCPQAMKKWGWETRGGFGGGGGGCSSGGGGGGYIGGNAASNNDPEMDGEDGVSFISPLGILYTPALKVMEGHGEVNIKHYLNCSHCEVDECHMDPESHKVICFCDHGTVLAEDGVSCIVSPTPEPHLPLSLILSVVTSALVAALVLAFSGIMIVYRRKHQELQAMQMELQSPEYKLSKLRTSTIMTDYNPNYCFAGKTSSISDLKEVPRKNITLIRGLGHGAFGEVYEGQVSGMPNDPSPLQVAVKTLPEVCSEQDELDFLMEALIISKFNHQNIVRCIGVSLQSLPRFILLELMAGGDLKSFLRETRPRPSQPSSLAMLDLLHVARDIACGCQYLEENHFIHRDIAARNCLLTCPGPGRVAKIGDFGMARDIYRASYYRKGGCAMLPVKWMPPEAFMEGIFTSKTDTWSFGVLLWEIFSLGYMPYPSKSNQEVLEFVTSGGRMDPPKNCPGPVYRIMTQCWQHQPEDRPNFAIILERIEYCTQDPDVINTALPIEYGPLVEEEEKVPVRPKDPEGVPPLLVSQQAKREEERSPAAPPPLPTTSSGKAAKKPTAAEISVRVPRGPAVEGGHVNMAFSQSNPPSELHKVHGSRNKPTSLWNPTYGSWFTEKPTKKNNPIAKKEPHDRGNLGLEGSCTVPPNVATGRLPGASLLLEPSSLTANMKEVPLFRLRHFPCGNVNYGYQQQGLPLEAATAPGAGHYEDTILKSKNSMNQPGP
Procedure, shortened: (§1)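 Cells were seeded at 10 000/well with serial inhibitor dilutions or DMSO vehicle and incubated 72 h at 37 °C, with ^3[H]-thymidine (1 μCi/well) added for the final 16 h. Incorporation was read by β scintillation counting. IC50 (μM) is the concentration giving a 50% decrease in uptake versus controls.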

[4] = molecular target: BaF3 cells transformed with the oncogenic fusion protein bcr-abl (Homo sapiens, UniProt P00519); test: Tritiated thymidine uptake cell proliferation assay, BaF3 BCR/ABL; type: cell-based; conditions: 3[H]-thymidine uptake, 72 h; read-out: BaF BCR/ABL IC50
Description: (§2) Inhibition of the Proliferation of Bcr/Abl Positive Cells
(§3) Method: Tritiated Thymidine Uptake Cell Proliferation Assay
(§4) The following procedure was used with parent untransformed BaF3 cells, BaF3 cells transformed with the oncogenic fusion protein bcr-abl, Abl-negative U937 cells, or Bcr-abl positive LAMA-84 cells. The parent untransformed BaF3 cells and Abl-negative U937 cells are used as controls. Cells were seeded in U-bottomed 96-well plates at 10 000 cells/well in a volume of 100 μL in supplemented medium. In the case of the parent untransformed BaF3 cells, the medium was supplemented with IL-3. Serial dilutions of inhibitors were added to the appropriate wells and volumes adjusted to 200 μL. Controls were treated with the equivalent volume of vehicle, DMSO, alone. Plates were incubated at 37° C. for 72 h. ^3[H]-thymidine (1 μCi/well) was added for the last 16 h of incubation. Cells were harvested on to paper filters and ^3[H]-thymidine incorporation was measured using a β scintillation counter (1430 MicroBeta, Wallac, Turku, Finland). The 50% inhibitory concentration (IC50) was defined as the concentration of inhibitor, expressed in micromolar, that gave a 50% decrease in ^3H-thymidine uptake compared with controls.

[5] = test system: NPM/ALK positive KARPAS-299 cells; test: Tritiated thymidine uptake cell proliferation assay, KARPAS-299; type: cell-based; conditions: 3[H]-thymidine uptake, 72 h, read-out: K299 (NPM/ALK+) IC50
Description: Inhibition of the proliferation of NPM/ALK positive cells
as §3
as §4, with “NPM/ALK, NPM/ALK positive SUDHL-1 cells, ALK-negative” for “bcr-abl, Abl-negative”, “NPM/ALK” for “or Bcr-abl”, “KARPAS-299” for “LAMA-84”, “Alk-negative” for “Abl-negative”, “^3[H]-thymidine” for “^3H-thymidine”

[6] = molecular target: T3, Recombinant Abl T315I protein (Homo sapiens, UniProt P00519, T315I); test: Abl T315I mutant kinase inhibitory activity, ELISA-based in vitro kinase assay; type: biochemical; conditions: purified Abl T315I, 0.3 mM ATP
T3 construct: made in house; host or cells: Sf9 cells (baculovirus)
Procedure, shortened: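 His-tagged human Abl T315I from Sf9 cells, preincubated 10 min at room temperature with inhibitor, then reacted on peptide-coated plates with 0.3 mM ATP, 1 mM MnCl2, 5 mM MgCl2 in 50 mM Tris pH 7.5. Phosphotyrosine detected by anti-pTyr/HRP ELISA at 450 nm; IC50 as 50% inhibition vs control.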

[7] = test system: NPM/ALK positive SUDHL-1 cells; test: Tritiated thymidine uptake cell proliferation assay, SUDHL-1; type: cell-based; conditions: 3[H]-thymidine uptake, 72 h
Procedure, shortened: as §1

[8] = test system: Bcr-abl positive LAMA-84 cells; test: Tritiated thymidine uptake cell proliferation assay, LAMA-84; type: cell-based; conditions: Homo sapiens, 3[H]-thymidine uptake, 72 h
Description: as §2, §3, §4

[9] = molecular target: T4, Recombinant Ret protein (Homo sapiens, UniProt P07949); test: RET kinase inhibitory activity, ELISA-based in vitro kinase assay; type: biochemical; conditions: purified Ret, 0.3 mM ATP
T4 construct: made in house; host or cells: Sf9 cells (baculovirus)
T4 sequence (P07949 29-1114): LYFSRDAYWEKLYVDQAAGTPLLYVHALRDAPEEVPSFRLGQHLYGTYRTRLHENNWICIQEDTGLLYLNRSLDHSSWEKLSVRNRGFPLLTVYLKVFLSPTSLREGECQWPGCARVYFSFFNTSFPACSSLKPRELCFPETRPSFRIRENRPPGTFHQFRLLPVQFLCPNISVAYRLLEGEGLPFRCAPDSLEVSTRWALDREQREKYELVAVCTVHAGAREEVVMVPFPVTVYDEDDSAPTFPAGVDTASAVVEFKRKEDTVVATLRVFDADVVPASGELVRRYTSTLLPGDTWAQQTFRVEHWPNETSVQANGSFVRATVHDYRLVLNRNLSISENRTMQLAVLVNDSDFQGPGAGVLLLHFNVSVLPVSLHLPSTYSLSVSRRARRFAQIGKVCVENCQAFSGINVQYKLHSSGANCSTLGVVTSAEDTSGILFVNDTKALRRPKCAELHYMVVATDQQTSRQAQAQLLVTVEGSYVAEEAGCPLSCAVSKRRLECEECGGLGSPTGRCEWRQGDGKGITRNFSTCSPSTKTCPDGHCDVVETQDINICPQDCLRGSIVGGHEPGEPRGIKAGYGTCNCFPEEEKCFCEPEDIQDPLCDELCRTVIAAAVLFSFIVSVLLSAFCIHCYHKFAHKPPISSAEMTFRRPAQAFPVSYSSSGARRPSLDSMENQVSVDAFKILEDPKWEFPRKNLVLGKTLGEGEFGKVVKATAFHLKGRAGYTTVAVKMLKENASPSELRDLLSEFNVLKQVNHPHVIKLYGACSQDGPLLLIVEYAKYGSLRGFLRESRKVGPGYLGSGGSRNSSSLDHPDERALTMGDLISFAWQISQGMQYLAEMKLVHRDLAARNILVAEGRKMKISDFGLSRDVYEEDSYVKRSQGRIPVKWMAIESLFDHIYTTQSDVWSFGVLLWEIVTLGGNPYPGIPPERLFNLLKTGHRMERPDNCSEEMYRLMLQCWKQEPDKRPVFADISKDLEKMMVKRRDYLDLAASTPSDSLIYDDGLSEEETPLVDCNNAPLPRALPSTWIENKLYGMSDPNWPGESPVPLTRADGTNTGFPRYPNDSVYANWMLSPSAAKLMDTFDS

[10] = molecular target: T5, BaF3 cells transformed with the oncogenic fusion protein RET-PTC2 (Homo sapiens, UniProt P07949); test: Tritiated thymidine uptake cell proliferation assay, BaF3 RET/PTC; type: cell-based; conditions: 3[H]-thymidine uptake, 72 h; read-out: BaF RET/PTC IC50
T5 construct: fused on or other part: P10644 (cAMP-dependent protein kinase type I-alpha regulatory subunit)
Description: Inhibition of the Proliferation of RET-positive Cells
as §3
as §4, with “RET-PTC2,” for “bcr-abl, Abl-negative U937 cells,”, “RET-negative 11937” for “Bcr-abl positive LAMA-84”, “RET-negative” for “Abl-negative”, “^3[H]-thymidine” for “^3H-thymidine”

T1 sequence (Q9UM73 19-1620): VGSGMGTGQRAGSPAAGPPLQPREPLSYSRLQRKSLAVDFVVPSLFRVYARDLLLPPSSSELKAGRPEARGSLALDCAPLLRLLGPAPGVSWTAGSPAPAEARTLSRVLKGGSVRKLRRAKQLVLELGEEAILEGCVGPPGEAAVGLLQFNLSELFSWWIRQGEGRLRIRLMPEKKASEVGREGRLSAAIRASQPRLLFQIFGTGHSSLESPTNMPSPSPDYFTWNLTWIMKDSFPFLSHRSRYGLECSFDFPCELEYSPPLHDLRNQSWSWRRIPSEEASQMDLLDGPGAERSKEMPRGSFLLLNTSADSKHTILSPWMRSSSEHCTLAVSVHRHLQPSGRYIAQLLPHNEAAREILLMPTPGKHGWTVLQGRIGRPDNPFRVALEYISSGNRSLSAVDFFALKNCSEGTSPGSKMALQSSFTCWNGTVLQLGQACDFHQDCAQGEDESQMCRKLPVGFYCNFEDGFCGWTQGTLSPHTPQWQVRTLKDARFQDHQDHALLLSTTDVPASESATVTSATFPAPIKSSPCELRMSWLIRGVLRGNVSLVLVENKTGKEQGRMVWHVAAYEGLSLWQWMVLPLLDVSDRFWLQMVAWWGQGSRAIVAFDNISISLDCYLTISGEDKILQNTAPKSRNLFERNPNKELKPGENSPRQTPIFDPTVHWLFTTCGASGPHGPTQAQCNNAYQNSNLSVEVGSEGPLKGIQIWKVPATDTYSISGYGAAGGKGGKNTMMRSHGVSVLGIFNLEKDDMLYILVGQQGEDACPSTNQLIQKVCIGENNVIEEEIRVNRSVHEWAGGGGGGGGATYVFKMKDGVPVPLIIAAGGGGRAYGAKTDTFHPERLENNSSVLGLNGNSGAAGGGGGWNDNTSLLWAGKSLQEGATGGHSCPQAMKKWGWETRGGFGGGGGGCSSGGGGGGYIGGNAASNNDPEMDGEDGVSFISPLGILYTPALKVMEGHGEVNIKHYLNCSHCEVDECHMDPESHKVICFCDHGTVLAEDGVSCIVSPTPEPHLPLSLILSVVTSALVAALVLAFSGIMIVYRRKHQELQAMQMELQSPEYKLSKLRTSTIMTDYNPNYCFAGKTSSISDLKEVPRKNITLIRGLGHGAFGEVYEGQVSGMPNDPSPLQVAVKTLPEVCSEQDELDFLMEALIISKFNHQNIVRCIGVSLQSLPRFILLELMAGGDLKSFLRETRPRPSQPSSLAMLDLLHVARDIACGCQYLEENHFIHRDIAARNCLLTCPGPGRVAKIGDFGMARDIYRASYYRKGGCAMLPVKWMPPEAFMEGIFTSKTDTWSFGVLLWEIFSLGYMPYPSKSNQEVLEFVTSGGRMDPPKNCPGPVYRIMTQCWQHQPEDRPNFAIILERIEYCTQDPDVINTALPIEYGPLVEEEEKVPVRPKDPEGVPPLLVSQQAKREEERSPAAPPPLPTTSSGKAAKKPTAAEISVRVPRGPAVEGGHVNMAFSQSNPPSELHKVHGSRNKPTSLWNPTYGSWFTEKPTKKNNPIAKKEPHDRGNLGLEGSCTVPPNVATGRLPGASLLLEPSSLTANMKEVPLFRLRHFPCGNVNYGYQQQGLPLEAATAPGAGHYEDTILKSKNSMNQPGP

Row | Structure (SMILES) | IC50 [1] | GI50 [3] | GI50 [4] | IC50 [5] | IC50 [6] | IC50 [7] | IC50 [9] | GI50 [10] | IC50 [2] | IC50 [8]
1 | Clc1cnc2[nH]c3ccc(Br)cc3c2c1 [R252, 6-bromo-3-chloro-9H-pyrido[2,3-b]indole] | 1700 ± 400 nM | > 20 µM | > 20 µM | > 20 µM | – | – | – | – | > 20 µM | –
2 | COc1ccc(CNC(=O)CCC(=O)c2ccc3[nH]c4ncc(Cl)cc4c3c2)cc1 [R304, 4-(3-Chloro-9H-pyrido[2,3-b]indol-6-yl)-N-(4-methoxybenzyl)-4-oxobutyramide] | – | 2.6 ± 1 µM | – | – | 5 µM | 8.4 µM | – | – | 19 ± 7 µM | 1600 nM
3 | O=C(CBr)c1ccc2[nH]c3ncccc3c2c1 [R228] | – | 8 µM | 18 µM | – | 13 ± 4.6 µM | – | 16 µM | 11 µM | 13 µM | –
4 | CN1CCN(Cc2ccc(C(=O)Nc3nc(-c4ccc5[nH]c6ncccc6c5c4)cs3)cc2)CC1 [R222] | 88000 ± 4300 nM | 1.5 µM | 2.5 µM | – | > 100 µM | – | 8.8 ± 1.6 µM | 1.6 µM | 1.5 µM | –

More lines, main results first:

Row | IC50 [1] | GI50 [3] | GI50 [4] | IC50 [5] | IC50 [6] | IC50 [7] | IC50 [9] | GI50 [10] | Structure (SMILES) | IC50 [2] | IC50 [8]
5 | – | 15 ± 3 µM | – | – | 8.3 µM | 32 µM | – | – | COc1ccc(-c2ccc3[nH]c4nc(-c5ccc(OC)cc5)ccc4c3c2)cc1 [R311, 2,6-di(4-methoxyphenyl)-9H-pyrido[2,3-b]indole] | > 100 µM | 55000 nM
6 | 800 ± 300 nM | 7.3 ± 0.3 µM | – | – | 3.5 ± 0.03 µM | 5.7 µM | 1.3 µM | – | O=C(CSc1ccccc1)c1ccc2[nH]c3nc(Cl)ccc3c2c1 [R306, 1-(2-Chloro-9H-pyrido[2,3-b]indol-6-yl)-2-phenylsulfanylethanone] | 25 ± 3 µM | 1400 nM
